≈ marks a conversion by molar mass, not a printed value.
Legend:
[1] = Neuroprotective activity in cortical neurons assessed as reduction in glutamate-induced cell death at 5 uM incubated for 24 hrs prior to glutamate-challenge measured after 24 hrs by MTT assay; format: functional, Cortical neurone; set-up: scale not given: the % may be the effect or the level left
[2] = Stability in cortical neurons assessed as drug metabolism at 5 uM; format: ADME; settings: cortical neurone
[3] = Aqueous solubility of the compound in phosphate buffered saline after 90 mins by laser nephelometry at pH 7.4; format: physicochemical
[4] = Aqueous solubility of the compound in phosphate buffered saline after 90 mins by laser nephelometry at pH 4; format: physicochemical
[5] = Half life in aqueous media at pH 7; format: physicochemical; settings: for half-life: aqueous media; for t1/2: buffer
Rattus norvegicus [6] = assay: Drug metabolism in Sprague-Dawley rat plasma assessed as progesterone formation at 4 mg/kg, iv; format: ADME, organism-based; set-up: dose 4 mg/kg, route intravenous; settings: in vivo
Rattus norvegicus [7] = assay: Neuroprotective activity in rat assessed as reduction in bilateral cortical contusion-induced cerebral edema at 4 mg/kg, iv administered as single dose 1 hr post-injury measured after 24 hrs relative to untreated; format: functional; set-up: scale not given: the % may be the effect or the level left
in vivo = settings: Sprague-Dawley, rat, plasma, iv, 4 mg/kg
Description: Half life in Sprague-Dawley rat plasma at 4 mg/kg, iv

[8] = Drug metabolism in rat liver S9 fraction assessed as progesterone formation; format: ADME, subcellular
Liver = assay: Metabolic stability in rat liver S9 fraction assessed as compound remaining; format: ADME, subcellular
Rattus norvegicus [9] = assay: Metabolic stability in Sprague-Dawley rat assessed as compound remaining at 10 mg/kg, iv administered as single dose by LC-MS/MS analysis; format: ADME, organism-based; set-up: dose 10 mg/kg, route intravenous; settings: in vivo
Rattus norvegicus [10] = assay: Drug metabolism in Sprague-Dawley rat assessed as free oxime formation at 10 mg/kg, iv administered as single dose by LC-MS/MS analysis; format: ADME, organism-based; set-up: dose 10 mg/kg, route intravenous; settings: in vivo
Rattus norvegicus [11] = assay: Drug metabolism in Sprague-Dawley rat assessed as progesterone formation at 10 mg/kg, iv administered as single dose by LC-MS/MS analysis; format: ADME, organism-based; set-up: dose 10 mg/kg, route intravenous; settings: in vivo
Rattus norvegicus [12] = assay: Neuroprotective activity in rat assessed as reduction in bilateral cortical contusion-induced cerebral edema at 8 mg/kg, ip administered at 1 hr post-injury followed by 8 mg/kg, sc administered 6 hrs post-injury measured after 24 hrs relative to untreated control; format: functional; set-up: scale not given: the % may be the effect or the level left
Rattus norvegicus [13] = assay: Drug metabolism in Sprague-Dawley rat assessed as compound remaining at 10 mg/kg, im administered as single dose by LC-MS/MS analysis; format: ADME, organism-based; set-up: dose 10 mg/kg, route intramuscular; settings: in vivo
Rattus norvegicus [14] = assay: Drug metabolism in Sprague-Dawley rat assessed as free oxime formation at 10 mg/kg, im administered as single dose by LC-MS/MS analysis; format: ADME, organism-based; set-up: dose 10 mg/kg, route intramuscular; settings: in vivo
Rattus norvegicus [15] = assay: Drug metabolism in Sprague-Dawley rat assessed as progesterone formation at 10 mg/kg, im administered as single dose by LC-MS/MS analysis; format: ADME, organism-based; set-up: dose 10 mg/kg, route intramuscular; settings: in vivo
Plasma [16] = assay: Drug metabolism rat plasma assessed as free oxime formation at 10 uM by LC-MS/MS analysis; format: ADME, cell-free
[17] = Drug metabolism in rat liver S9 fraction assessed as free oxime formation; format: ADME, subcellular
Plasma [18] = assay: Drug metabolism human plasma assessed as free oxime formation at 10 uM by LC-MS/MS analysis; format: ADME, cell-free
[19] = Neuroprotective activity in cortical neurons assessed as reduction in glutamate-induced cell death at 10 uM incubated for 24 hrs prior to glutamate-challenge measured after 24 hrs by MTT assay; format: functional, Cortical neurone; set-up: scale not given: the % may be the effect or the level left
[20] = Neuroprotective activity in cortical neurons assessed as reduction in glutamate-induced cell death at 1 uM incubated for 24 hrs prior to glutamate-challenge measured after 24 hrs by MTT assay; format: functional, Cortical neurone; set-up: scale not given: the % may be the effect or the level left

## CC(=O)[C@H]1CC[C@H]2[C@@H]3CCC4=C/C(=N/O)CC[C@]4(C)[C@H]3CC[C@]12C
[1]
  Activity: 21%
[2]
  Stability: Stable
[3]
  solubility kinetic at 1.5 h: < 45 µM
[4]
  solubility kinetic at 1.5 h: < 45 µM
[5]
  half-life: > 14400 min
Rattus norvegicus [6]
  Drug metabolism: Not Active
Rattus norvegicus [7]
  Activity: 60%
In vivo
  half-life: 162 min

## C/C(=N\O)[C@H]1CC[C@H]2[C@@H]3CCC4=CC(=O)CC[C@]4(C)[C@H]3CC[C@]12C
[2]
  Stability: Stable
[8]
  Drug metabolism: Not Active
Liver
  Stability: Stable

## CO/N=C(\C)[C@H]1CC[C@H]2[C@@H]3CCC4=CC(=O)CC[C@]4(C)[C@H]3CC[C@]12C
[2]
  Stability: Stable
[3]
  solubility kinetic at 1.5 h: < 25 µM
[4]
  solubility kinetic at 1.5 h: < 25 µM
[5]
  half-life: > 14400 min

## C/C(=N\OCCN1CCOCC1)[C@H]1CC[C@H]2[C@@H]3CCC4=CC(=O)CC[C@]4(C)[C@H]3CC[C@]12C
[1]
  Activity: 26%
[2]
  Stability: Stable
[3]
  solubility kinetic at 1.5 h: 108 µM (≈ 47.8 µg/mL)
[4]
  solubility kinetic at 1.5 h: > 450 µM
[5]
  half-life: > 14400 min

## CC(=O)O/N=C(\C)[C@H]1CC[C@H]2[C@@H]3CCC4=CC(=O)CC[C@]4(C)[C@H]3CC[C@]12C
[2]
  Stability: Stable
[3]
  solubility kinetic at 1.5 h: 100 µM (≈ 37.2 µg/mL)
[4]
  solubility kinetic at 1.5 h: 180 µM (≈ 66.9 µg/mL)

## C/C(=N\OC(=O)[C@@H](N)C(C)C)[C@H]1CC[C@H]2[C@@H]3CCC4=CC(=O)CC[C@]4(C)[C@H]3CC[C@]12C.Cl
Rattus norvegicus [9]
  Stability: Unstable
Rattus norvegicus [10]
  Drug metabolism: Active
Rattus norvegicus [11]
  Drug metabolism: Active
[1]
  Activity: 24%
[2]
  Stability: Stable
Rattus norvegicus [12]
  Activity: 56%
[3]
  solubility kinetic at 1.5 h: 146 µM
[4]
  solubility kinetic at 1.5 h: > 645 µM
[5]
  half-life: 678 min
Rattus norvegicus [13]
  Stability: Unstable
Rattus norvegicus [14]
  Drug metabolism: Active
Rattus norvegicus [15]
  Drug metabolism: Not Active
Plasma [16]
  Drug metabolism: Active
[17]
  Drug metabolism: Active
[8]
  Drug metabolism: Active
Plasma [18]
  Drug metabolism: Active

## C/C(=N\OC(=O)[C@@H]1CCCN1)[C@H]1CC[C@H]2[C@@H]3CCC4=CC(=O)CC[C@]4(C)[C@H]3CC[C@]12C
[1]
  Activity: 21%
[19]
  Activity: 33%
[2]
  Stability: Stable
[3]
  solubility kinetic at 1.5 h: 34 µM (≈ 14.5 µg/mL)
[4]
  solubility kinetic at 1.5 h: 395 µM (≈ 169 µg/mL)

## C/C(=N\OC(=O)[C@@H]1CCC[N+]1(C)C)[C@H]1CC[C@H]2[C@@H]3CCC4=CC(=O)CC[C@]4(C)[C@H]3CC[C@]12C.[I-]
[2]
  Stability: Stable
[3]
  solubility kinetic at 1.5 h: 51 µM
[4]
  solubility kinetic at 1.5 h: 345 µM
[5]
  half-life: 50 min

## C/C(=N\OC(=O)CN(C)C)[C@H]1CC[C@H]2[C@@H]3CCC4=CC(=O)CC[C@]4(C)[C@H]3CC[C@]12C
[2]
  Stability: Stable
[3]
  solubility kinetic at 1.5 h: 171 µM (≈ 70.9 µg/mL)
[4]
  solubility kinetic at 1.5 h: 449 µM (≈ 186 µg/mL)

## C/C(=N\OC(=O)C[N+](C)(C)C)[C@H]1CC[C@H]2[C@@H]3CCC4=CC(=O)CC[C@]4(C)[C@H]3CC[C@]12C.[I-]
[2]
  Stability: Stable
[3]
  solubility kinetic at 1.5 h: 45 µM
[4]
  solubility kinetic at 1.5 h: > 540 µM
[5]
  half-life: 56 min

## C/C(=N\OC(=O)CN1CCOCC1)[C@H]1CC[C@H]2[C@@H]3CCC4=CC(=O)CC[C@]4(C)[C@H]3CC[C@]12C
[2]
  Stability: Stable
[3]
  solubility kinetic at 1.5 h: 215 µM (≈ 98.2 µg/mL)
[4]
  solubility kinetic at 1.5 h: 215 µM (≈ 98.2 µg/mL)

## C/C(=N\OC(=O)CN1CCN(C)CC1)[C@H]1CC[C@H]2[C@@H]3CCC4=CC(=O)CC[C@]4(C)[C@H]3CC[C@]12C
[2]
  Stability: Stable
[3]
  solubility kinetic at 1.5 h: 145 µM (≈ 68.1 µg/mL)
[4]
  solubility kinetic at 1.5 h: 153 µM (≈ 71.9 µg/mL)
[5]
  half-life: 4240 min

## C/C(=N\OC(=O)c1cccnc1)[C@H]1CC[C@H]2[C@@H]3CCC4=CC(=O)CC[C@]4(C)[C@H]3CC[C@]12C
[1]
  Activity: 20%
[2]
  Stability: Stable
[3]
  solubility kinetic at 1.5 h: < 35 µM
[4]
  solubility kinetic at 1.5 h: < 35 µM
[5]
  t1/2: ND(Insoluble)

## C/C(=N\OC(=O)c1ccc[n+](C)c1)[C@H]1CC[C@H]2[C@@H]3CCC4=CC(=O)CC[C@]4(C)[C@H]3CC[C@]12C.[I-]
[1]
  Activity: 0%
[20]
  Activity: 14%
[2]
  Stability: Stable
[3]
  solubility kinetic at 1.5 h: 212 µM
[4]
  solubility kinetic at 1.5 h: 349 µM
[5]
  half-life: 186 min

## C/C(=N\OC(=O)c1ccc(CN)cc1)[C@H]1CC[C@H]2[C@@H]3CCC4=CC(=O)CC[C@]4(C)[C@H]3CC[C@]12C.Cl
[2]
  Stability: Stable
[3]
  solubility kinetic at 1.5 h: < 30 µM
[4]
  solubility kinetic at 1.5 h: < 30 µM
[5]
  t1/2: ND(Insoluble)

## C/C(=N\OC(=O)c1ccc(CN2CCN(C)CC2)cc1)[C@H]1CC[C@H]2[C@@H]3CCC4=CC(=O)CC[C@]4(C)[C@H]3CC[C@]12C
[2]
  Stability: Stable
[3]
  solubility kinetic at 1.5 h: < 30 µM
[4]
  solubility kinetic at 1.5 h: < 30 µM
[5]
  t1/2: ND(Insoluble)

## C/C(=N\OC(=O)C1CCNCC1)[C@H]1CC[C@H]2[C@@H]3CCC4=CC(=O)CC[C@]4(C)[C@H]3CC[C@]12C.Cl
[1]
  Activity: 4%
[19]
  Activity: 24%
[2]
  Stability: Stable
[3]
  solubility kinetic at 1.5 h: 247 µM
[4]
  solubility kinetic at 1.5 h: 247 µM
[5]
  half-life: 5690 min

## C/C(=N\OC(=O)C1CCN(C)CC1)[C@H]1CC[C@H]2[C@@H]3CCC4=CC(=O)CC[C@]4(C)[C@H]3CC[C@]12C
[2]
  Stability: Stable
[3]
  solubility kinetic at 1.5 h: 108 µM (≈ 49.1 µg/mL)
[4]
  solubility kinetic at 1.5 h: > 660 µM

## C/C(=N\OC(=O)C1CC[N+](C)(C)CC1)[C@H]1CC[C@H]2[C@@H]3CCC4=CC(=O)CC[C@]4(C)[C@H]3CC[C@]12C.[I-]
[1]
  Activity: 0%
[2]
  Stability: Stable
[3]
  solubility kinetic at 1.5 h: > 500 µM
[4]
  solubility kinetic at 1.5 h: > 500 µM
[5]
  half-life: 4240 min

## C/C(=N\OC(=O)[C@@H]1CCCNC1)[C@H]1CC[C@H]2[C@@H]3CCC4=CC(=O)CC[C@]4(C)[C@H]3CC[C@]12C.Cl
[2]
  Stability: Stable
[3]
  solubility kinetic at 1.5 h: 428 µM
[4]
  solubility kinetic at 1.5 h: > 500 µM
[5]
  half-life: 2310 min

## C/C(=N\OC(=O)[C@H]1CCCNC1)[C@H]1CC[C@H]2[C@@H]3CCC4=CC(=O)CC[C@]4(C)[C@H]3CC[C@]12C.Cl
[2]
  Stability: Stable
[3]
  solubility kinetic at 1.5 h: 314 µM
[4]
  solubility kinetic at 1.5 h: 314 µM
[5]
  half-life: 2450 min

## CC(=O)[C@H]1CC[C@H]2[C@@H]3CCC4=C/C(=N/OC(=O)[C@@H](N)C(C)C)CC[C@]4(C)[C@H]3CC[C@]12C.Cl
Rattus norvegicus [9]
  Stability: Unstable
Rattus norvegicus [10]
  Drug metabolism: Active
Rattus norvegicus [11]
  Drug metabolism: Active
[1]
  Activity: 27%
[2]
  Stability: Stable
Rattus norvegicus [12]
  Activity: 59%
[3]
  solubility kinetic at 1.5 h: 172 µM
[4]
  solubility kinetic at 1.5 h: 322 µM
[5]
  half-life: 606 min
Rattus norvegicus [13]
  Stability: Unstable
Rattus norvegicus [14]
  Drug metabolism: Active
Rattus norvegicus [15]
  Drug metabolism: Not Active
Plasma [16]
  Drug metabolism: Active
Plasma [18]
  Drug metabolism: Active
